According to ChEMBL document CHEMBL4507287, “Data for DCP probe MRL-650” (2021):

How the values were obtained:
[1] = target: Serine/threonine-protein kinase TNNI3K (Homo sapiens) (UniProt Q59H18); conditions: Compound concentration 1000.0 nM
[2] = target: 1-phosphatidylinositol 3-phosphate 5-kinase (Homo sapiens) (UniProt Q9Y2I7); conditions: Compound concentration 1000.0 nM
[3] = target: Interferon-induced, double-stranded RNA-activated protein kinase (Homo sapiens) (UniProt P19525); conditions: Compound concentration 1000.0 nM
[4] = target: Tyrosine-protein kinase ABL1 (Homo sapiens) (UniProt P00519); conditions: Compound concentration 1000.0 nM
[5] = target: Cyclin-dependent kinase 4 (Homo sapiens) (UniProt P11802); conditions: Compound concentration 1000.0 nM
[6] = target: Non-receptor tyrosine-protein kinase TNK1 (Homo sapiens) (UniProt Q13470); conditions: Compound concentration 1000.0 nM
[7] = target: Ribosomal protein S6 kinase alpha-1 (Homo sapiens) (UniProt Q15418); conditions: Compound concentration 1000.0 nM
Ribosomal protein S6 kinase alpha-1 (Homo sapiens), sequence (Q15418 whole entry): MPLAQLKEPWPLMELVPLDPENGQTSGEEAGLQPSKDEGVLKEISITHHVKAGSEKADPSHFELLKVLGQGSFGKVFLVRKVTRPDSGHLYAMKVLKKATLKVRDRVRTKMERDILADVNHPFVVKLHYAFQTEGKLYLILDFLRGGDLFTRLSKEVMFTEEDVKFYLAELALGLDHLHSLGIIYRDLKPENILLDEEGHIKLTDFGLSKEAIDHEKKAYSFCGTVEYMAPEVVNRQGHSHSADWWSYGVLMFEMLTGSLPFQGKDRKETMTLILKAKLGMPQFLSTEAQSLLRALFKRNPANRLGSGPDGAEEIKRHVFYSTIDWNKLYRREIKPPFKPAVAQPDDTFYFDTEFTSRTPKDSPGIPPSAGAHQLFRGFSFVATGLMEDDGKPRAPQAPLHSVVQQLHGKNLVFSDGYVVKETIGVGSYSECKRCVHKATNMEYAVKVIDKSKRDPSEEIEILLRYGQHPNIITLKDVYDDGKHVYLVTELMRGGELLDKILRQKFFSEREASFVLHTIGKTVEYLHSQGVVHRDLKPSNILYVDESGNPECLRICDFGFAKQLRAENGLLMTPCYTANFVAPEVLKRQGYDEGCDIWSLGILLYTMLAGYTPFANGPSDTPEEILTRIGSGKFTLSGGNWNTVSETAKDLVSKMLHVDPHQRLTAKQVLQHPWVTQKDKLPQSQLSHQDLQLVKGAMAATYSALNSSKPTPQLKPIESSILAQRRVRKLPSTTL

[8] = target: Death-associated protein kinase 2 (Homo sapiens) (UniProt Q9UIK4); conditions: Compound concentration 1000.0 nM
[9] = target: Histamine H3 receptor (Homo sapiens) (UniProt Q9Y5N1); conditions: Compound concentration 10.0 uM
Histamine H3 receptor (Homo sapiens), sequence (Q9Y5N1 whole entry): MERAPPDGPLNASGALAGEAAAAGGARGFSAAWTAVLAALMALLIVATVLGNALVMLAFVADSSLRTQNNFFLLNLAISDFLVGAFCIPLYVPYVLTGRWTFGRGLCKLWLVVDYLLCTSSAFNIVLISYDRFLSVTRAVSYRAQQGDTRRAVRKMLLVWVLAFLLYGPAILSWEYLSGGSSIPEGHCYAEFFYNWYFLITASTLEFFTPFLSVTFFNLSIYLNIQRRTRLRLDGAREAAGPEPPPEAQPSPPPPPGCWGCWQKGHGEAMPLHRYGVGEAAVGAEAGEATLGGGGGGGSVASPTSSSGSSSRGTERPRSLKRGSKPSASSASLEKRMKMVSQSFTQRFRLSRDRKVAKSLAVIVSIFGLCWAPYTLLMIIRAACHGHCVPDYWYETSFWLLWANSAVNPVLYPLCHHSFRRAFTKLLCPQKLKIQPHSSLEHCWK

[10] = tested on: Mast/stem cell growth factor receptor Kit (Homo sapiens), P10721 [D816H]; conditions: Compound concentration 1000.0 nM
[11] = target: Casein kinase I isoform gamma-3 (Homo sapiens) (UniProt Q9Y6M4); conditions: Compound concentration 1000.0 nM
[12] = target: Receptor-interacting serine/threonine-protein kinase 4 (Homo sapiens) (UniProt P57078); conditions: Compound concentration 1000.0 nM
[13] = tested on: Epidermal growth factor receptor (Homo sapiens), P00533 [UNDEFINED MUTATION]; conditions: Compound concentration 1000.0 nM
[14] = target: Serine/threonine-protein kinase MRCK beta (Homo sapiens) (UniProt Q9Y5S2); conditions: Compound concentration 1000.0 nM
[15] = target: Mitogen-activated protein kinase kinase kinase 4 (Homo sapiens) (UniProt Q9Y6R4); conditions: Compound concentration 1000.0 nM
[16] = target: Insulin-like growth factor 1 receptor (Homo sapiens) (UniProt P08069); conditions: Compound concentration 1000.0 nM
[17] = target: Activin receptor type-2A (Homo sapiens) (UniProt P27037); conditions: Compound concentration 1000.0 nM
[18] = target: Tyrosine-protein kinase Fes/Fps (Homo sapiens) (UniProt P07332); conditions: Compound concentration 1000.0 nM
Tyrosine-protein kinase Fes/Fps (Homo sapiens), sequence (P07332 whole entry): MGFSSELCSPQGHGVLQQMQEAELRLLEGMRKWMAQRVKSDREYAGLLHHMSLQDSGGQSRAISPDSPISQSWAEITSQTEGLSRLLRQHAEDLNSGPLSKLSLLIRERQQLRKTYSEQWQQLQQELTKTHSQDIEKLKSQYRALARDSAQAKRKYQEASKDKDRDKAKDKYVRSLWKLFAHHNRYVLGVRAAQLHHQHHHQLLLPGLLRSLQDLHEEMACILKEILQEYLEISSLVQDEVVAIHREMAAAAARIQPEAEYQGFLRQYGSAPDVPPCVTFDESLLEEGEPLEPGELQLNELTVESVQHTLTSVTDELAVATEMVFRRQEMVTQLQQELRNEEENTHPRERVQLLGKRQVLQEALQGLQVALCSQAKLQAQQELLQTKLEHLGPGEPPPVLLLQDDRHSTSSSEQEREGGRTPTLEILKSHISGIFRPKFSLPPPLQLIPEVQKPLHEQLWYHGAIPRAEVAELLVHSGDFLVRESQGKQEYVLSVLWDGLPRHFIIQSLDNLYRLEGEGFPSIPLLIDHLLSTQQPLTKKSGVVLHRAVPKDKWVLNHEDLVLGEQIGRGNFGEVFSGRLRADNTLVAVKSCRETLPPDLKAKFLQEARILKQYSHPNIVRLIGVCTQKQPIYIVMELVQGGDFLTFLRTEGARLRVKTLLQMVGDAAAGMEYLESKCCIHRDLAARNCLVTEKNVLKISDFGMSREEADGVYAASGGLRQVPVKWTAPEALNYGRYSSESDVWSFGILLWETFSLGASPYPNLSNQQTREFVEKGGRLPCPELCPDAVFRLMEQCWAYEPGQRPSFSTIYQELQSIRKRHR

[19] = tested on: Mast/stem cell growth factor receptor Kit (Homo sapiens), P10721 [V559D,V654A]; conditions: Compound concentration 1000.0 nM
[20] = target: Myosin-IIIa (Homo sapiens) (UniProt Q8NEV4); conditions: Compound concentration 1000.0 nM
[21] = target: Serine/threonine-protein kinase ICK (Homo sapiens) (UniProt Q9UPZ9); conditions: Compound concentration 1000.0 nM
[22] = target: Serine/threonine-protein kinase tousled-like 1 (Homo sapiens) (UniProt Q9UKI8); conditions: Compound concentration 1000.0 nM
[23] = target: Cyclin-dependent kinase 17 (Homo sapiens) (UniProt Q00537); conditions: Compound concentration 1000.0 nM
Cyclin-dependent kinase 17 (Homo sapiens), sequence (Q00537 whole entry, looked up): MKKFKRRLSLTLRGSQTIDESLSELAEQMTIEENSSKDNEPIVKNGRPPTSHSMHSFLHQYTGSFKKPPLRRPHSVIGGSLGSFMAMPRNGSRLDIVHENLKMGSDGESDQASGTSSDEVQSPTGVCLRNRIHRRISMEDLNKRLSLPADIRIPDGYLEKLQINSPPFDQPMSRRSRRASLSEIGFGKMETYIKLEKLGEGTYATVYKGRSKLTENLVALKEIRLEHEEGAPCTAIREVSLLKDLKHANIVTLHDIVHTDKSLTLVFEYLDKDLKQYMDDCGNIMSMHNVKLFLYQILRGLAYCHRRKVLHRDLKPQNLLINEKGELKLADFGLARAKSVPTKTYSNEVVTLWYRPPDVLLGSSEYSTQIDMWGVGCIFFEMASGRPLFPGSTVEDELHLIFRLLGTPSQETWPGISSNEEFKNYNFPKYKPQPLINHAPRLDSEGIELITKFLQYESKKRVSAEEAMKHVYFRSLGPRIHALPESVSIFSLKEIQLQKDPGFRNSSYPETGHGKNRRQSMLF

[24] = target: SRSF protein kinase 2 (Homo sapiens) (UniProt P78362); conditions: Compound concentration 1000.0 nM
[25] = target: Ephrin type-B receptor 1 (Homo sapiens) (UniProt P54762); conditions: Compound concentration 1000.0 nM
[26] = target: Cyclin-dependent kinase-like 2 (Homo sapiens) (UniProt Q92772); conditions: Compound concentration 1000.0 nM
[27] = target: cAMP-dependent protein kinase catalytic subunit PRKX (Homo sapiens) (UniProt P51817); conditions: Compound concentration 1000.0 nM
[28] = target: Dual specificity protein kinase CLK2 (Homo sapiens) (UniProt P49760); conditions: Compound concentration 1000.0 nM
[29] = target: Serine/threonine-protein kinase PLK1 (Homo sapiens) (UniProt P53350); conditions: Compound concentration 1000.0 nM
Serine/threonine-protein kinase PLK1 (Homo sapiens), sequence (P53350 whole entry): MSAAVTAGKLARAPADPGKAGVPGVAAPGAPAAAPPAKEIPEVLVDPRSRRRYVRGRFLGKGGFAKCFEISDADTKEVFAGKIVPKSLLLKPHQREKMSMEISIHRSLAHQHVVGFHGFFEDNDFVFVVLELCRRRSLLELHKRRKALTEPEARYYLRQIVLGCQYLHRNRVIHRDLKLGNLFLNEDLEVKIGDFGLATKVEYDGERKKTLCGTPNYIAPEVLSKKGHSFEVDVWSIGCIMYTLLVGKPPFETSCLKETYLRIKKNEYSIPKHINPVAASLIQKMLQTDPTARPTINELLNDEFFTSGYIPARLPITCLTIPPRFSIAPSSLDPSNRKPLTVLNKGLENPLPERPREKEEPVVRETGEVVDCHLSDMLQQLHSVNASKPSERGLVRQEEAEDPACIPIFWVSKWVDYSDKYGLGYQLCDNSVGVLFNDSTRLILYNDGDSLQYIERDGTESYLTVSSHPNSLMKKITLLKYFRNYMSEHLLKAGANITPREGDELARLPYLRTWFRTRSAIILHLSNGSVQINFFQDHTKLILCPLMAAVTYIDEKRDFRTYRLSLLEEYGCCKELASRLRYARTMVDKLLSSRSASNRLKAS

[30] = target: Serine/threonine-protein kinase ULK3 (Homo sapiens) (UniProt Q6PHR2); conditions: Compound concentration 1000.0 nM
[31] = target: Serine/threonine-protein kinase Nek2 (Homo sapiens) (UniProt P51955); conditions: Compound concentration 1000.0 nM
[32] = target: D(1A) dopamine receptor (Homo sapiens) (UniProt P21728); conditions: Compound concentration 10.0 uM
D(1A) dopamine receptor (Homo sapiens), sequence (P21728 whole entry): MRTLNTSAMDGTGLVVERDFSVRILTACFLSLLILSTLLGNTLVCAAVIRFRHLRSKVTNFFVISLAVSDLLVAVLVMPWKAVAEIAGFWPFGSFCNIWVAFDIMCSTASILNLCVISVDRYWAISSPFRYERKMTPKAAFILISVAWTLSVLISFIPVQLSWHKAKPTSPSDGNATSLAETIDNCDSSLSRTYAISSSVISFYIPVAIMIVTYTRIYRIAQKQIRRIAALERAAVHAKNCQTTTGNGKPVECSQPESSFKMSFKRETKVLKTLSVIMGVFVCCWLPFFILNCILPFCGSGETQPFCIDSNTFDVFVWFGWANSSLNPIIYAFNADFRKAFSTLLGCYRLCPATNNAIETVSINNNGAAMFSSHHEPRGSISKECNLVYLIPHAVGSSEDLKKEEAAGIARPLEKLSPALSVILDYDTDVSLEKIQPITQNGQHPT

[33] = tested on: Tyrosine-protein kinase ABL1 (Homo sapiens), P00519 [T315I]; conditions: Compound concentration 1000.0 nM
[34] = target: Sodium-dependent noradrenaline transporter (Homo sapiens) (UniProt P23975); conditions: Compound concentration 10.0 uM
Sodium-dependent noradrenaline transporter (Homo sapiens), sequence (P23975 whole entry, canonical isoform): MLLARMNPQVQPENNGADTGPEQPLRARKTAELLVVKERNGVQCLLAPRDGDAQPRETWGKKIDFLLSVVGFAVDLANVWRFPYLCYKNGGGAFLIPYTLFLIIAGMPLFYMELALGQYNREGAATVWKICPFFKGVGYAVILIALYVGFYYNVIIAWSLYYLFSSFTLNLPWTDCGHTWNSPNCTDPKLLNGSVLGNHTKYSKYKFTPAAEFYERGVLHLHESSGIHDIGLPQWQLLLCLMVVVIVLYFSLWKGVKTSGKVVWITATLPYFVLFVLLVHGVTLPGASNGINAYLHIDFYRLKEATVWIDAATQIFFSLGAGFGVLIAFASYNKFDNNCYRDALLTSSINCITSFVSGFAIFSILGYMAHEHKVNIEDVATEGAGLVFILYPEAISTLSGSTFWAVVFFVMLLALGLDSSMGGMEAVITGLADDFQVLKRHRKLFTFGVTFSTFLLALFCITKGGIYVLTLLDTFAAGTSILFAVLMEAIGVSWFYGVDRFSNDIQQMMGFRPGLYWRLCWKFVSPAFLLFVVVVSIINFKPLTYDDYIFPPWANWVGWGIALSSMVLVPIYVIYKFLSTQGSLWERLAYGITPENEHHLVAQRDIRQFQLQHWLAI

[35] = target: Casein kinase I isoform gamma-2 (Homo sapiens) (UniProt P78368); conditions: Compound concentration 1000.0 nM
[36] = target: Rho-associated protein kinase 2 (Homo sapiens) (UniProt O75116); conditions: Compound concentration 1000.0 nM
[37] = target: BMP-2-inducible protein kinase (Homo sapiens) (UniProt Q9NSY1); conditions: Compound concentration 1000.0 nM
[38] = tested on: Epidermal growth factor receptor (Homo sapiens), P00533 [G719S]; conditions: Compound concentration 1000.0 nM
[39] = target: Ephrin type-A receptor 2 (Homo sapiens) (UniProt P29317); conditions: Compound concentration 1000.0 nM
[40] = target: Serine/threonine-protein kinase Nek6 (Homo sapiens) (UniProt Q9HC98); conditions: Compound concentration 1000.0 nM
[41] = target: Homeodomain-interacting protein kinase 2 (Homo sapiens) (UniProt Q9H2X6); conditions: Compound concentration 1000.0 nM
[42] = target: Fibroblast growth factor receptor 3 (Homo sapiens) (UniProt P22607); conditions: Compound concentration 1000.0 nM
[43] = tested on: Receptor-type tyrosine-protein kinase FLT3 (Homo sapiens), P36888 [D835Y]; conditions: Compound concentration 1000.0 nM
[44] = tested on: Receptor-type tyrosine-protein kinase FLT3 (Homo sapiens), P36888 [K663Q]; conditions: Compound concentration 1000.0 nM
[45] = target: SRSF protein kinase 3 (Homo sapiens) (UniProt Q9UPE1); conditions: Compound concentration 1000.0 nM

Serine/threonine-protein kinase TNNI3K (Homo sapiens), sequence (Q59H18 whole entry): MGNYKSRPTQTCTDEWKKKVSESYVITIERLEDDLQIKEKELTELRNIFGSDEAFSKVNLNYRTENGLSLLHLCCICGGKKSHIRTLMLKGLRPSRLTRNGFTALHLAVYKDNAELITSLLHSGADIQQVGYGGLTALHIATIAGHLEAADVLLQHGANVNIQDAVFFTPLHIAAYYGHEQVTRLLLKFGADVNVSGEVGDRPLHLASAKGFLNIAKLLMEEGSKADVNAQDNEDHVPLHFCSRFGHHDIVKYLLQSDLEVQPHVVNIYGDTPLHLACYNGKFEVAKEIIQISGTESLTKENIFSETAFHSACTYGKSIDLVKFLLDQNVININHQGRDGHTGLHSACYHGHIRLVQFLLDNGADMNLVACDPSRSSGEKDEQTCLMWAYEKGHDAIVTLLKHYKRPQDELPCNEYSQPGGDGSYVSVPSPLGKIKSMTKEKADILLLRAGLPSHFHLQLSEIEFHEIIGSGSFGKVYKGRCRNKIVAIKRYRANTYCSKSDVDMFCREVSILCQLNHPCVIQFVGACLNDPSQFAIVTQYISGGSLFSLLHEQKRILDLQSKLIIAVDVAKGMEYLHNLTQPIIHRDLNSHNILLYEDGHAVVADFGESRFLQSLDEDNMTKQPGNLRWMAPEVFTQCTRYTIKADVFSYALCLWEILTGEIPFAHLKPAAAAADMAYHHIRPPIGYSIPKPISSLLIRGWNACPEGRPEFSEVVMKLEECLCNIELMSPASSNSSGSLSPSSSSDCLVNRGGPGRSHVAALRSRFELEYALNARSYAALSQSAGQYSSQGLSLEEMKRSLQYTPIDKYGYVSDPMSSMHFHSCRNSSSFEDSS

CC(=O)Nc1c(C(C)=O)c(=O)n(C)c2nc(-c3ccc(Cl)cc3Cl)c(-c3ccc(Cl)cc3)cc12 [NAPHTHYRIDINONE]
inactive: residual activity [1] 100% | residual activity [2] 100% | residual activity [3] 100% | residual activity [4] 81% | residual activity [5] 87% | residual activity [6] 100% | residual activity [7] 100% | residual activity [8] 100% | inhibition [9] -2.68% | residual activity [10] 100% | residual activity [11] 100% | residual activity [12] 93% | residual activity [13] 100% | residual activity [14] 100% | residual activity [15] 89% | residual activity [16] 100% | residual activity [17] 100% | residual activity [18] 100% | residual activity [19] 100% | residual activity [20] 100% | residual activity [21] 100% | residual activity [22] 100% | residual activity [23] 100% | residual activity [24] 100% | residual activity [25] 100% | residual activity [26] 100% | residual activity [27] 100% | residual activity [28] 100% | residual activity [29] 100% | residual activity [30] 75% | residual activity [31] 100% | inhibition [32] 2.02% | residual activity [33] 100% | inhibition [34] 15.5% | residual activity [35] 100% | residual activity [36] 100% | residual activity [37] 100% | residual activity [38] 100% | residual activity [39] 100% | residual activity [40] 100% | residual activity [41] 100% | residual activity [42] 100% | residual activity [43] 100% | residual activity [44] 100% | residual activity [45] 100%

CC(=O)c1c(NS(C)(=O)=O)c2cc(-c3ccc(Cl)cc3)c(-c3ccc(Cl)cc3Cl)nc2n(C)c1=O [MRL-CB1-NC]
inactive: residual activity [1] 100% | residual activity [2] 66% | residual activity [3] 100% | residual activity [4] 92% | residual activity [5] 63% | residual activity [6] 100% | residual activity [7] 93% | residual activity [8] 100% | inhibition [9] 0.553% | residual activity [10] 70% | residual activity [11] 100% | residual activity [12] 61% | residual activity [13] 100% | residual activity [14] 81% | residual activity [15] 95% | residual activity [16] 100% | residual activity [17] 100% | residual activity [18] 87% | residual activity [19] 89% | residual activity [20] 88% | residual activity [21] 77% | residual activity [22] 95% | residual activity [23] 100% | residual activity [24] 100% | residual activity [25] 100% | residual activity [26] 99% | residual activity [27] 97% | residual activity [28] 100% | residual activity [29] 87% | residual activity [30] 80% | residual activity [31] 100% | inhibition [32] 14.2% | residual activity [33] 93% | inhibition [34] 20.2% | residual activity [35] 100% | residual activity [36] 100% | residual activity [37] 100% | residual activity [38] 100% | residual activity [39] 100% | residual activity [40] 100% | residual activity [41] 87% | residual activity [42] 100% | residual activity [43] 95% | residual activity [44] 100% | residual activity [45] 100%
